The CC50 is the concentration that lowers cell viability or growth by half. For orientation: IC50 means the concentration needed to halve the response being measured.

The results in this text go back to ChEMBL document CHEMBL4665764, “Synthesis and Biological Evaluation of Celastrol Derivatives as Potential Immunosuppressive Agents” (J Nat Prod, 2020).

Data set [1] in a line: Cytotoxicity against BALB/c mouse T cell assessed as reduction in cell viability after 48 hrs by CCK8 assay. Particulars: BALB/c mouse T cells. It is filed as tissue-based, T cell line.
Data set [2] can be described thus: Antiproliferative activity against Con A-induced BALB/c mouse T cell after 48 hrs by CCK8 assay. The class given is functional, tissue-based, T cell line.
Data set [3] in a line: Selectivity index, ratio of CC50 for cytotoxicity against BALB/c mouse T cell to IC50 for antiproliferative activity against Con A-induced BALB/c mouse T cell. Also noted: species or system T cell line.

Turning to `C#CCOC(=O)[C@]1(C)CC[C@]2(C)CC[C@]3(C)C4=C[C@@H](c5c[nH]c6ccc(Br)cc56)c5c(cc(OC(C)=O)c(OC(C)=O)c5C)[C@]4(C)CC[C@@]3(C)[C@@H]2C1`, the CC50 at 48 h in data set [1] was ≥ 10 µM. In addition, the IC50 in data set [2] was ≥ 10 µM.
As for `C#CCOC(=O)[C@]1(C)CC[C@]2(C)CC[C@]3(C)C4=C[C@@H](c5c[nH]c6ccc(OC)cc56)c5c(cc(OC(C)=O)c(OC(C)=O)c5C)[C@]4(C)CC[C@@]3(C)[C@@H]2C1`, the CC50 at 48 h in data set [1] was ≥ 10 µM. For the same compound, the IC50 in data set [2] is ≥ 10 µM.
As for `CC1=C(O)C(=O)C=C2C1=CC=C1[C@@]2(C)CC[C@@]2(C)[C@@H]3C[C@](C)(C(=O)OCc4cccc(Br)c4)CC[C@]3(C)CC[C@]12C`, in data set [1], the CC50 at 48 h is 1.8 µM. The IC50 in data set [2] turned out to be 1.07 µM. Further, the “Ratio CC50/IC50” value in data set [3] came out at 1.7.
On to `COC(=O)[C@]1(C)CC[C@]2(C)CC[C@]3(C)C4=CC=C5C(=CC(=O)C(O)=C5C)[C@]4(C)CC[C@@]3(C)[C@@H]2C1` [PRISTIMERIN], for which the CC50 at 48 h in data set [1] stood at 2.4 µM. This compound also came in with an IC50 in data set [2] of 1.2 µM. The “Ratio CC50/IC50” value in data set [3] was 2.
Take `C#CCOC(=O)[C@]1(C)CC[C@]2(C)CC[C@]3(C)C4=C[C@@H](c5c[nH]c6ccc(F)cc56)c5c(cc(OC(C)=O)c(OC(C)=O)c5C)[C@]4(C)CC[C@@]3(C)[C@@H]2C1`: the CC50 at 48 h in data set [1] was determined as 5.6 µM. Moreover, the IC50 in data set [2] is ≥ 10 µM.
`CC1=C(O)C(=O)C=C2C1=CC=C1[C@@]2(C)CC[C@@]2(C)[C@@H]3C[C@](C)(C(=O)OCc4ccc(C(F)(F)F)cc4)CC[C@]3(C)CC[C@]12C`: the CC50 at 48 h in data set [1] was determined as 6.7 µM. In addition, it took 4.87 µM to reach half-maximal inhibition in data set [2] (IC50). The “Ratio CC50/IC50” value in data set [3] amounted to 1.4.
Consider `C#CCOC(=O)[C@]1(C)CC[C@]2(C)CC[C@]3(C)C4=C[C@@H](c5c[nH]c6c(C)cccc56)c5c(cc(OC(C)=O)c(OC(C)=O)c5C)[C@]4(C)CC[C@@]3(C)[C@@H]2C1`, for which the CC50 at 48 h in data set [1] is ≥ 10 µM. In addition, in data set [2], the IC50 was ≥ 10 µM.
Take `CC1=C(O)C(=O)C=C2C1=CC=C1[C@@]2(C)CC[C@@]2(C)[C@@H]3C[C@](C)(C(=O)NCc4ccccc4)CC[C@]3(C)CC[C@]12C`: in data set [1], the CC50 at 48 h turned out to be 0.8 µM. Further, the midpoint of inhibition in data set [2], the IC50, lay at 0.362 µM. Moreover, the “Ratio CC50/IC50” value in data set [3] is 2.1.
`C#CCOC(=O)[C@]1(C)CC[C@]2(C)CC[C@]3(C)C4=C[C@@H](c5c[nH]c6ccc(Cl)cc56)c5c(cc(OC(C)=O)c(OC(C)=O)c5C)[C@]4(C)CC[C@@]3(C)[C@@H]2C1`: the CC50 at 48 h in data set [1] was ≥ 10 µM. For the same compound, in data set [2], the IC50 is ≥ 10 µM.
`C#CCOC(=O)[C@]1(C)CC[C@]2(C)CC[C@]3(C)C4=C[C@@H](c5c[nH]c6ccc(C)cc56)c5c(cc(OC(C)=O)c(OC(C)=O)c5C)[C@]4(C)CC[C@@]3(C)[C@@H]2C1`: the CC50 at 48 h in data set [1] was ≥ 10 µM. Also, the IC50 in data set [2] is ≥ 10 µM.
As for `C#CCOC(=O)[C@]1(C)CC[C@]2(C)CC[C@]3(C)C4=C[C@@H](c5c[nH]c6ccccc56)c5c(cc(OC(C)=O)c(OC(C)=O)c5C)[C@]4(C)CC[C@@]3(C)[C@@H]2C1`, in data set [1], the CC50 at 48 h is ≥ 10 µM. For the same compound, the IC50 in data set [2] was ≥ 10 µM.
On to `C#CCOC(=O)[C@]1(C)CC[C@]2(C)CC[C@]3(C)C4=C[C@@H](c5c[nH]c6cc(OC)ccc56)c5c(cc(OC(C)=O)c(OC(C)=O)c5C)[C@]4(C)CC[C@@]3(C)[C@@H]2C1`, for which the CC50 at 48 h in data set [1] worked out at 3 µM. Also, the IC50 in data set [2] is ≥ 10 µM.
As to `C#CCOC(=O)[C@]1(C)CC[C@]2(C)CC[C@]3(C)C4=C[C@@H](c5c[nH]c6cc(F)ccc56)c5c(cc(OC(C)=O)c(OC(C)=O)c5C)[C@]4(C)CC[C@@]3(C)[C@@H]2C1`, in data set [1], the CC50 at 48 h was ≥ 10 µM. Moreover, the IC50 in data set [2] is ≥ 10 µM.
As to `CC1=C(O)C(=O)C=C2C1=CC=C1[C@@]2(C)CC[C@@]2(C)[C@@H]3C[C@](C)(C(=O)OCc4cccc(C)c4)CC[C@]3(C)CC[C@]12C`, the CC50 at 48 h in data set [1] was 1.9 µM. Further, in data set [2], the IC50 was determined as 1.6 µM.
Turning to `C#CCOC(=O)[C@]1(C)CC[C@]2(C)CC[C@]3(C)C4=C[C@@H](c5c[nH]c6cc(Cl)ccc56)c5c(cc(OC(C)=O)c(OC(C)=O)c5C)[C@]4(C)CC[C@@]3(C)[C@@H]2C1`, the CC50 at 48 h in data set [1] was found to be 4.1 µM. Moreover, the IC50 in data set [2] was ≥ 10 µM.
